Experimental data as given in patent publication US10259712B2, “Method of stabilizing compounds in water, water compositions thereby, and articles containing said water compositions” (priority 2015, dated 2019).
Like-named read-outs stand apart in the source and are kept apart here.

How the values were obtained:
[1] = Accelerated ageing of chlorine dioxide in aqueous carriers, 75 days at 50° C.; assay type: physicochemical
Experimental: A series of dilutions were set up and aged for 75 days at 50° C., (approximately two years of stability of this solution) that creates chlorine dioxide. A solution of chlorine dioxide at a concentration of 0.4 ppm was separately added to dioxytetrahydride gas-infused water and a second sample in tap water. The samples were aged for 75 days at 50° C. Prior to testing the concentration of chlorine dioxide of each sample, a control of chlorine dioxide at a concentration of 0.4 ppm in water was prepared. The concentration of chlorine dioxide measured in the two samples after aging, was 0.4 ppm for the dioxytetrahydride gas-infused water and 0.2 ppm for tap water.
The same protocol was performed on 0.2 ppm concentration of chlorine dioxide and the test results were 0.2 ppm for the dioxytetrahydride gas-infused water and 0.0 ppm in tap water.

[2] = initial 50 ppm
Description: Peroxide test strips supplied by Indigo® Instruments, Part #33815-P100 (referred as “peroxide test strips” or “test strip” herein) were used to determine the amount of hydrogen peroxide in either distilled water or in water infused with dioxytetrahydride gas (referred as “dioxytetrahydride gas-infused water” or “ultra-pure polarized water” herein). Test Strips are capable of measuring peroxide concentrations between 1 and 100 ppm (parts per million). A peroxide test strip was first submerged into 3% water solution of hydrogen peroxide obtained from a drugstore for home use.
A peroxide test strip was submerged into a clear PET-1 bottle (0.5 liter) of distilled water produced by Crystal Springs and another clear PET-1 bottle (0.5 liter) of dioxytetrahydride gas-infused water manufactured by AquaNew, LLC, Sarasota, Fla., respectively. The water produced by AquaNew is highly purified resulting from at least six (6) stages of treatment to obtain on or about 0.3 ppm of Total Dissolved Solids (pharmaceutical-grade water). […] Ten (10) drops of peroxide were added into each sample bottle and a test strip was dipped into each bottle and each bottle was immediately recapped. […] Both bottles with closures were left on a shelf in open light conditions under climate controlled conditions with no direct sunlight.
After two weeks, a test strip was dipped into each bottle and the bottle was immediately recapped. […] The two bottles with closures were placed back onto the shelf.
After four (4) months, another test strip was dipped into each bottle and the bottles were immediately recapped.

[3] = 58° C.
Experimental: Continuous experiments on the relative stabilization of hydrogen peroxide with different aqueous carriers, that is, types of water, including dioxytetrahydride gas-infused water, were carried out.
Very low concentrations of hydrogen peroxide (1.2 weight %) was added to the various aqueous carriers and measured for percent absorption by potassium permanganate titration.
The samples were tested on day 1, 20, 27 and 34. The tests were accelerated in aging when the temperature of each water sample was maintained at 58° C., approximating close to two years of stabilization.

[4] = in dioxytetrahydride gas-infused water, throughout the 34 days, initial 1.2 weight %

| Compound | concentration of chlorine dioxide after aging ([1]; in dioxytetrahydride gas-infused water, initial 0.2 ppm) [ppm] | concentration of chlorine dioxide after aging ([1]; in dioxytetrahydride gas-infused water, initial 0.4 ppm) [ppm] | concentration of chlorine dioxide after aging ([1]; in tap water, initial 0.2 ppm) [ppm] | concentration of chlorine dioxide after aging ([1]; in tap water, initial 0.4 ppm) [ppm] | peroxide concentration ([2]; in dioxytetrahydride gas-infused water, after four (4) months) [ppm] | peroxide concentration ([2]; in dioxytetrahydride gas-infused water, after two weeks, clear PET-1 bottle on shelf in open light) [ppm] | peroxide concentration ([2]; in distilled water, after four (4) months) [ppm] | peroxide concentration ([2]; in distilled water, after two weeks, clear PET-1 bottle on shelf in open light) [ppm] | hydrogen peroxide concentration [3, 4] [%] | percent absorption [3, 4] [%] | hydrogen peroxide concentration ([3]; in tap water, day 20, initial 1.2%) [%] | hydrogen peroxide concentration ([3]; in tap water, day 34, initial 1.2%) |
| --- | --- | --- | --- | --- | --- | --- | --- | --- | --- | --- | --- | --- |
| [O][Cl+][O-] [chlorine dioxide] | 0.2 | 0.4 | 0.0 | 0.2 |  |  |  |  |  |  |  |  |
| OO [hydrogen peroxide] |  |  |  |  | 50 | 50 | 30 | 30 | 1.2 | ~100 | 0.4 | below 0.2% |
